System: β-lactamase
Experiment: Detection of fluorescence of compound 15 with β-lactamase (microwell plate, plate fluorimeter)
Format: biochemical
Settings: 75 μ, 37° C., 10 U.mL^−1, fluorescence measured over time, FIG. 1
Procedure: The fluorescence of compound 15 was evaluated with and without a β-lactamase. The test was performed by incubation/chemical reaction in a microwell plate (75 μ, 37° C., 10 U.mL^−1). The fluorescence was measured over time by a plate fluorimeter.

Q: O=C(Cc1cccs1)N[C@@H]1C(=O)N2C(C(=O)O)=C(COC(=O)NCC3CCCCN3C(=O)Oc3ccc(Cl)cc3-c3nc4ccc(Cl)cc4c(=O)[nH]3)CS[C@H]12 (stereo partly shown) [Compound 15] was tested. Which “fluorescence generated in the presence of β-lactamase (hydrolysis, fragmentation and release of ELF 97)” value did it give?
A: The value was “intense fluorescence”.
